Data: patent US20240360122A1, “POLYMORPHIC FORMS AND SALTS OF A GLP-1R AGONIST” (Terns (Suzhou) Biotechnology Co., Ltd., priority 2023, published 2024)

Assay: Approximate solubility in different solvents at RT
Format: physicochemical
Description: For each experiment, approximately 2 mg of sample was added into a 3-mL glass vial. Corresponding solvents were then added stepwise (50/50/200/700/1000 μL) into the vials until the solids were dissolved visually or a total volume of 2 mL was reached. Solubility results summarized in Table 64 to Table 66 were used to guide the solvent selection in polymorph screening design.

N#Cc1ccc(COc2cccc(C3CCN(Cc4nc5ccc(C(=O)O)cc5n4Cc4cncs4)CC3)n2)c(F)c1 [Freeform Type D]
Approximate solubility (1,4-Dioxane, RT): S < 1.1 mg/mL
Approximate solubility (2-MeTHF, RT): S < 1.0 mg/mL
Approximate solubility (Anisole, RT): S < 1.0 mg/mL
Approximate solubility (CHCl3, RT): S < 1.1 mg/mL
Approximate solubility (CPME, RT): S < 0.9 mg/mL
Approximate solubility (DMSO, RT): S > 44.0 mg/mL
Approximate solubility (H2O, RT): S < 1.1 mg/mL
Approximate solubility (IPA, RT): S < 1.1 mg/mL
Approximate solubility (MTBE, RT): S < 1.1 mg/mL
Approximate solubility (Toluene, RT): S < 1.0 mg/mL
Approximate solubility (n-Heptane, RT): S < 1.0 mg/mL
